Several values for one entry are separate records, joined by “and”; a condition that tells them apart may be missing. Identical values can stand only once. Like-named read-outs stand apart in the source and are kept apart here.
What was measured:
[1] = tested on: IRE1/XBP1 (adaptive) UPR sub-pathway; assay: UPR XBP1 assay (CHO-XBP1-luciferase reporter cell line); assay type: cell-based
Experimental: A high-throughput screen of the NIH Molecular Libraries Small Molecule Repository (MLSMR) of >350,000 compounds was carried out using complementary cell-based reporter assays using stably transfected CHO-K1 cells that specifically identify activators of the PERK/eIF2α/CHOP (apoptotic), or the IRE1/XBP1 (adaptive) UPR sub-pathways.
The liquid samples were first confirmed at a single-point concentration of 10 μM in the […]. Of the liquid samples, 674 compounds were confirmed to have at least 32% activity at a 10 μM assay concentration. The confirmed compounds were further tested in dose response in the UPR-CHOP primary assay to obtain EC50 values. In addition, confirmed compounds were also dosed out in the CHO-XBP1-luciferase reporter cell line to identify compounds that were selective for the CHOP apoptotic over the adaptive XBP1 pathway.
The high throughput screening effort and subsequent validation produced two chemotypes, which were further explored by SAR analysis for potency, selectivity, the absence of reactive functionality, synthetic accessibility, physiochemical properties, and hit rate in unrelated PUBCHEM assays. SAR testing of re-constituted powders encompassed dose response testing of compounds in two assays: UPR-CHOP and UPR-XBP1 assays.

MEF with wild-type CHOP = assay: Proliferation / cytotoxicity (ATPLite) in MEF with wild-type CHOP; assay type: cell-based, mouse
Experimental: (§1) Several of the analogs derived from these changes were evaluated in secondary assays as they met the preliminary probe criteria for UPR-CHOP and UPR-XBP1 activity. Select compounds were assessed in a dose response manner for the ability to suppress proliferation in both the CHOP wild-type and CHOP knockout murine embryonic fibroblasts (−/− MEF KO CHOP)(Table 2).
(§2) It was determined whether ML291 and ML291 congeners would induce cell death (cytotoxicity as measured by ATPLite®, which measures production of ATP from living cells) in cells where these pathways are operant, but not activate them in the absence of the pathways.

−/− MEF KO CHOP = assay: Proliferation / cytotoxicity (ATPLite) in MEF with CHOP KO; assay type: cell-based; settings: Mus musculus
Experimental: as §1, §2

[2] = Aqueous solubility in 1x PBS, pH 7.4; assay type: physicochemical; settings: room temperature (23° C.)
Experimental: Solubility was measured in phosphate-buffered saline (PBS) at room temperature (23° C.). PBS by definition is 137 mM NaCl, 2.7 mM KCl, 10 mM sodium phosphate dibasic, 2 mM potassium phosphate monobasic and a pH of 7.4.

PAMPA permeability = assay type: in vitro ADME
Experimental: The PAMPA (Parallel Artificial Membrane Permeability Assay) assay was used as an in vitro model of passive, transcellular permeability. An artificial membrane immobilized on a filter was placed between a donor and acceptor compartment. At the start of the test, drug was introduced in the donor compartment. Following the permeation period, the concentration of drug in the donor and acceptor compartments was measured using UV spectroscopy.

[3] = Plasma protein binding, human; assay type: in vitro ADME
From the text: Plasma protein binding is a measure of a drug's efficiency to bind to the proteins within blood plasma. The less bound a drug is, the more efficiently it can traverse cell membranes or diffuse. Highly plasma protein bound drugs are confined to the vascular space, thereby having a relatively low volume of distribution. In contrast, drugs that remain largely unbound in plasma are generally available for distribution to other organs and tissues. ML291 was highly plasma protein bound to human plasma proteins (>99%), though it is somewhat less tightly bound to mouse plasma proteins (˜84%).

Plasma stability, human = assay type: in vitro ADME
From the text: (§3) Plasma stability is a measure of the stability of small molecules and peptides in plasma and is an important parameter, which strongly can influence the in vivo efficacy of a test compound. Drug candidates are exposed in plasma to enzymatic processes (proteinases, esterases), and they can undergo intramolecular rearrangement or bind irreversibly (covalently) to proteins. ML291 appeared to be moderately stable in human plasma (˜84% remaining), but less so in mouse plasma (˜52% remaining).

Plasma stability, mouse = assay type: in vitro ADME
From the text: as §3

[4] = molecular target: T1, dopamine transporter (DAT) (Homo sapiens, UniProt Q01959); assay: Radio-ligand binding panel (Ricerca), 67 GPCRs, ion channels and transporters
T1 construct: Ricerca Biosciences LLC (Bothell, Wash.)
Experimental: ML291 was submitted to Ricerca Biosciences LLC (Bothell, Wash.) to evaluate it in radio-ligand binding assays to determine activity against a panel of 67 GPCRs, ion channels and transporters at 10 μM.

[5] = tested on: CHOP transcripts (apoptotic) compared to spliced XBP1 (adaptive); assay: qRT-PCR transcription profile in OSCC cell lines UMSCC23, A253 and HN12; assay type: cell-based; settings: four hours treatment
From the text: While ML291 robustly and selectively activated the apoptotic (CHOP) arm of UPR in the engineered luciferase reporter CHO-K1 cells, while not activating reporter under the control of the adaptive arm (XBP1) promoters, direct confirmation of the selective activation of genes and pathways on the apoptotic UPR arm in a biologically relevant cell or cell line was needed. To determine whether or not ML291 could selectively activate the apoptotic (CHOP) arm of the UPR, relevant oral squamous cell carcinoma cell lines, UMSCC23, A253 and HN12, were treated with ML291 for four hours. The activation/induction of associated genes along the UPR sub-pathways were measured by quantitative real-time reverse-transcription PCR (qRT-PCR) analysis of cDNA pools generated from whole cell lysates. […] Furthermore, the simultaneous induction of the CHOP down stream target GADD34, but not the DNA excision and repair gene ERCC1 indicated ML291 was activating CHOP via the UPR and not DNA damage.

H460/T800 = assay: Proliferation, H460/T800; assay type: cell-based; settings: Homo sapiens, NCI-H460, 24 hours, average of three experiments
Experimental: (§4) To determine whether ML291 could reduce the proliferation of malignant cells, a panel of OSCC (UMSCC23, A253, HN6, HN12, HN30, H460/T800) and ovarian cancer (RMG-1, TOV112D, A2780 and SKOV3) cell lines, were treated with increasing doses (0.15-20 μM) of ML291 for 24 hours (FIGS. 3A and 3B).

SKOV3 = assay: Proliferation, SKOV3; assay type: cell-based; settings: Homo sapiens, SK-OV-3, 24 hours
Experimental: as §4

T1 sequence (Q01959 whole entry, species assumed): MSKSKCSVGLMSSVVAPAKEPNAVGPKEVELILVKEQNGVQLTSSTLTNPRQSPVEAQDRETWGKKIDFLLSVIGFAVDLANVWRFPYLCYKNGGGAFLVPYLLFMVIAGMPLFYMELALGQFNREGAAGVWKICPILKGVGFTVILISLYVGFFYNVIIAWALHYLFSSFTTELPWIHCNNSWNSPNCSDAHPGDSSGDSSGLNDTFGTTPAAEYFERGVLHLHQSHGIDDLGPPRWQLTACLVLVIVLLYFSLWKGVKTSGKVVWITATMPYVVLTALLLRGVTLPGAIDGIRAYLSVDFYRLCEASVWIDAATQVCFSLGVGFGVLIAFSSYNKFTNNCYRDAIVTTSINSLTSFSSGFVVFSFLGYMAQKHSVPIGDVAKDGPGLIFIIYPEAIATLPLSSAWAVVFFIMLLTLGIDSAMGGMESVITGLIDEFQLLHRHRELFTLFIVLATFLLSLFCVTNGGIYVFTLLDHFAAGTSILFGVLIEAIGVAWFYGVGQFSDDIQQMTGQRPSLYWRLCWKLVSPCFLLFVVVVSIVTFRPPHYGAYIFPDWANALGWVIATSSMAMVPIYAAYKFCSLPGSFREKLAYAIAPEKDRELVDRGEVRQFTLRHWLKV

Question: What does the source list for `O=C(Nc1ccc(S(=O)(=O)N2CCC(Cl)CC2)cc1)c1ccc([N+](=O)[O-])o1` [ML291, N-(4-((4-chloropiperidin-1-yl)sulfonyl)phenyl)-5-nitrofuran-2-carboxamide]?
Answer: EC50 ([1]; Table 1, mean of replicates, AID602416, read-out: UPR XBP1 Assay Potency EC50): > 80 µM; EC50 ([1]; Table 9, average of four runs, F12 HAMs, 10% hi-FBS, read-out: EC50 UPR XBP1 Assay): > 80 µM; EC50 ([1]; read-out: XBP1 EC50): > 80 µM; shift of potency in MEF wild-type CHOP versus CHO-K1 cell reporter assays (MEF with wild-type CHOP): ~6 fold; EC50 (MEF with wild-type CHOP; Mus musculus, Table 2, mean of replicates, EC50 and μM, read-out: Proliferation MEF wt CHOP): 4.77 ± 1.05 µM; IC50 (MEF with wild-type CHOP; Mus musculus, Table 5, MEF, ATPLite): 4.77 ± 1.05 µM; EC50 (MEF with wild-type CHOP; Mus musculus, read-out: CHOP wild-type EC50 (MEF)): 4.77 µM; EC50 (MEF with wild-type CHOP; read-out: CHOP wild-type EC50 (MEF)): ~4.8 µM; EC50 (−/− MEF KO CHOP; Table 2, mean of replicates, EC50 and μM, read-out: Proliferation −/− MEF KO CHOP): > 20 µM; IC50 (−/− MEF KO CHOP; Table 5, MEF, ATPLite): > 20 µM; EC50 (−/− MEF KO CHOP; read-out: EC50 on −/− MEF knockout cells): > 20 µM; Aqueous Solubility in 1x PBS, pH 7.4 [2]: 3.9 μg/mL and 9.4 μM; PAMPA Permeability, Pe (PAMPA permeability; Donor pH 5.0, Acceptor pH 7.4): 2910 nm/s; PAMPA Permeability, Pe (PAMPA permeability; Donor pH 6.2, Acceptor pH 7.4): 3290 nm/s; PAMPA Permeability, Pe (PAMPA permeability; Donor pH 7.4, Acceptor pH 7.4): 2450 nm/s; PAMPA permeability (PAMPA permeability; donor pH 5.0, 6.2 and 7.4): good permeability; bound to human plasma proteins [3]: > 99%; fraction unbound at 1 µM ([3]; plasma, Human, 1 μM, read-out: Plasma Protein Binding (% Bound) (converted)): 0.0025; fraction unbound at 10 µM ([3]; plasma, Human, 10 μM, read-out: Plasma Protein Binding (% Bound) (converted)): 0.0037; remaining in human plasma (Plasma stability, human): ~84%; Plasma Stability (% Remaining at 3 hours @ 37° C.) (Plasma stability, human; Human): 85.58%; remaining in mouse plasma (Plasma stability, mouse): ~52%; Plasma Stability (% Remaining at 3 hours @ 37° C.) (Plasma stability, mouse; Mouse): 52.31%; inhibition at 10 µM [4]: 68%; selectivity of CHOP transcripts compared to spliced XBP1 [5]: 5 fold; IC50 (H460/T800): 18.9 ± 1.83 µM; IC50 (SKOV3): 1.59 µM

Reference: patent US9732067B2, “Compounds and methods for activating the apoptotic arm of the unfolded protein response” (University of Kansas, priority 2012, dated 2017)
